Laboratory results taken from publication PMC7332124, “Design, One Pot Synthesis and Molecular Docking Studies of Substituted-1H-Pyrido[2,1-b] Quinazolines as Apoptosis-Inducing Anticancer Agents” (Asian Pacific Journal of Cancer Prevention : APJCP, 2020).
“Also recorded” adds a separate entry of the source.

Key:
A549 cells [1] = experiment: Clonogenic growth inhibition assay; format: cell-based, human; conditions: 1, 2.5 and 5 µM, 7 days
Experimental: The assay mainly tests ability to undergo “unlimited” division by every cell in the population and the hindrance of colony formation by compound 4i was determined in exponentially growing A549 cells by culturing 100-150 cells per well. […] Then, formed colonies were fixed with glutaraldehyde (6.0% v/v), stained with crystal violet (0.5% w/v). The treatment clearly […] the capacity to produce colonies in lung cancer cell population in a concentration dependent manner. […] The total colonies were counted by molecular imaging system Vilber Fusion Fx software and the values were represented as a percent colony forming ability.
Lung cancer cells A549 at exponentially phase were seeded into 12-well culture plates and kept overnight and treated with the compound 4q. Every 2 days the medium was replaced with the fresh medium. After 7 days of incubation, the colonies formed were fixed and stained with 1 % crystal violet in methanol for 3 h. The number of stained colonies were counted under chemdoc imaging system (Vilber Fusion Fx, France). Colony formation was calculated as a percentage to untreated control cultures (Moghaddam et al., 2009).

A549 cells [2] = experiment: DAPI nuclear staining; format: cell-based, human; conditions: 0.5, 1, 2.5 and 5 µM, 72 h
Experimental: After treatment with compound 4q for 72 h, lung cancer cell line A549 were washed with PBS then fixed with 4% formaldehyde for 10 min and then permeabilized with 0.1% Tween 20 followed by staining with 1 µM DAPI. Control and treated cells were observed under fluorescence microscope with excitation at 359 nm and emission at 461 nm using DAPI filter at 200X magnification (Sgorbati et al., 1986).

HT-29 = experiment: Cell growth inhibition assay (MTT, day 0 subtracted); format: cell-based, human; conditions: Homo sapiens, 72 h, read-out: In vitro Growth Inhibitory Concentration (GI50)
Experimental: (§1) Various cancer cells were used to screen anticancer activity of newly synthesized compounds. Lung (A549 and NCI-H460), colon (HCT-15 and HT-29), prostate (DU-145) cancer cells maintained in RPMI-1640 media while normal lung fibroblasts cell line (HFL-1) were maintained in F-12 k medium supplemented with 10% fetal bovine serum (FBS) with 1% antibiotic-antimycotic solution (Sigma). Cells were maintained in 5% CO2 with 98% relative humidity at 37 °C in incubator. When 80-90% of confluency is reached, they were sub-cultured using 0.25% trypsin/1 mM EDTA solution for further passage. The compounds in this series were dissolved in DMSO (1 %) to prepare the stock solution of 10 mM. Further dilutions were made accordingly with respective media to obtain the required concentrations.
(§2) Briefly, the cells were seeded on to a 96-well plate in 100 µl of medium. Following 24 h MTT reagent was added in few wells and day 0 absorbance was analyzed, and then cells were treated with compounds and incubated for an additional 72 h. After the treatment, 100 µl of MTT (0.5 mg/ml) was added and incubated at 37 °C for 4 h. Then MTT reagent was suctioned, the insoluble formazan crystals were dissolved in DMSO and formazan product formed is measured at 570 nm wavelength. The day 0 absorbance was subtracted from the 72 h incubated plates and data were plotted as a percentage of untreated control (Dai et al., 2011).

DU-145 = experiment: as above; format: cell-based, human; conditions: Homo sapiens, 72 h, read-out: In vitro Growth Inhibitory Concentration (GI50)
Experimental: as §1, §2

A549 = experiment: as above; format: cell-based, human; conditions: Homo sapiens, 72 h, read-out: In vitro Growth Inhibitory Concentration (GI50)
Experimental: as §1, §2

[3] = test system: HFL-1 normal lung fibroblasts; experiment: as above; format: cell-based, human; conditions: Homo sapiens, HFL1, 72 h, read-out: In vitro Growth Inhibitory Concentration (GI50)
Experimental: as §1, §2

HCT-15 = experiment: as above; format: cell-based, human; conditions: Homo sapiens, 72 h, read-out: In vitro Growth Inhibitory Concentration (GI50)
Experimental: as §1, §2

NCI-H460 = experiment: as above; format: cell-based, human; conditions: Homo sapiens, 72 h, read-out: In vitro Growth Inhibitory Concentration (GI50)
Experimental: as §1, §2

melting point: 185 to 186 °C | GI50 (HT-29): 5.98 ± 0.18 µM | GI50 (DU-145): 9.64 ± 0.37 µM | GI50 (A549): 2.7 ± 0.18 µM | GI50 (HCT-15): 6.27 ± 0.19 µM | GI50 (NCI-H460): 3.24 ± 0.4 µM
SMILES: C1=CC2=NC3=C(CCCC3)C(c3cn(Cc4ccccc4)c4ccccc34)N2C=C1 (stereo not drawn) [Compound 4i, 11-(1-benzyl-1H-indol-3-yl)-2,3,4, 11-tetrahydro-1H-pyrido [2,1-b] quinazoline]
colony formation (A549 cells [1]): Reductions in the number of colonies; also recorded: strong anti-clonogenic effect | nuclear changes by DAPI staining (A549 cells [2]): chromatin condensation, nuclear fragmentation, and horse shoe shaped nucleus | GI50 [3]: 4.54 ± 0.59 µM
